Tests used:
[1] = test system: SARS-CoV-2 virus (WA1/2020) strain; type: cell-based; conditions: for % viral reduction: virus pre-incubated 10 minutes with sample (conc./dilution per Table 2A), diluted four times, added to vero cells, 48/72 hours, supernatant plaque assay; for antiviral activity (in words): incubated with SARS-CoV-2
viral particles = conditions: electron microscopy; cited from earlier work

Compound | % viral reduction [1] [%] | antiviral activity (in words) [1] | virucidal effect (in words) (viral particles)
Triton X100 [reference compound] | 95.23 | – | –
CCCCC/C=C\C/C=C\CCCCCCCC(=O)O [LA, Linoleic acid] | 97.42 | showed antiviral activity | lyse and completely disintegrate viral particles
CC/C=C\C/C=C\C/C=C\CCCCCCCC(=O)O [ALA, α-linolenic acid] | 97.13 | showed antiviral activity | –
CCCCC/C=C\C/C=C\C/C=C\CCCCC(=O)O [GLA, gamma-linolenic acid] | 96.98 | showed antiviral activity | lyse and completely disintegrate viral particles

— patent publication US20230218557A1, “A FATTY ACID BASED COMPOSITION FOR TREATMENT AND/OR PREVENTION OF ENVELOPED-VIRUS RELATED INFECTIONS” (priority 2020, published 2023)
